According to publication PMC10720658 (Frontiers in parasitology, 2023):

Target: T1, AEK1 (Trypanosoma brucei, UniProt Q582V7)
T1 construct: gene Tb03.48O8.470
Assay: TR-FRET displacement of probe SCP-2
Type: binding
Conditions: read-out: % control^a

T1 sequence (Q582V7 entry or part of it): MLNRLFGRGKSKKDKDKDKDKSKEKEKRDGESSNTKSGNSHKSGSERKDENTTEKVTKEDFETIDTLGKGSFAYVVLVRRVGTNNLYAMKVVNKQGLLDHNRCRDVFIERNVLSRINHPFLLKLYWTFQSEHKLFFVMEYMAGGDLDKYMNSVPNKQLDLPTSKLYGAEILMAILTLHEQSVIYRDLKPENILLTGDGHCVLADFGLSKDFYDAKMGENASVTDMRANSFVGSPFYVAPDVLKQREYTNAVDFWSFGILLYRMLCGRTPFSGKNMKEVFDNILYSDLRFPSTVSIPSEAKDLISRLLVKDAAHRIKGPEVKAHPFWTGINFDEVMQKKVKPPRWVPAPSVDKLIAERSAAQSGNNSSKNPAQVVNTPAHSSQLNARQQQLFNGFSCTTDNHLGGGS

| SMILES | probe binding remaining (% of control) at 1 µM [%] |
| --- | --- |
| COc1cc2c(Oc3ccc4[nH]c(C)cc4c3F)ncnc2cc1OCCCN1CCCC1 [Cediranib (AZD2171)] | 36.6 |
| Cn1cc(-c2[nH]c3cc(NC(=O)[C@H](N)C4CCCCC4)cc4c3c2C=NNC4=O)cn1 [PF-477736] | 23.1 |
| Cc1nc(Nc2[nH]nc3c2CN(C(=O)N[C@H](CN(C)C)c2ccccc2)C3(C)C)c2sccc2n1 [PF-3758309] | 38.2 |
| Cc1c[nH]c2nc(Nc3ccc(N4CCN(C)CC4)c(F)c3)nc(-c3cccc(CC#N)c3)c12 [SGI-7079] | 43.7 |
| CCS(=O)(=O)c1cccc(-c2cc(C(=O)NC3CCN(C)CC3)c(C)c3[nH]c4ncc(C)cc4c23)c1 [TAK-901] | 20.1 |
